Measured values reported in patent publication US5013741A, “N-[substituted alkylidene]-1,2,3,4-tetrahydro-9-acridinamines useful for enhancing the cholinergic function in a mammal” (priority 1988, dated 1991).

Key:
acetylcholinesterase = test: Acetylcholinesterase Inhibition Assay (photometric method of Ellman et al.); type: biochemical
[1] = system: Scopolamine Induced Memory Deficit; test: Dark Avoidance Assay (scopolamine induced memory deficit reversal); type: in vivo; settings: s.c., mice, retest after 24 hours
Experimental: In this assay mice are tested for their ability to remember an unpleasant stimulus for a period of 24 hours. A mouse is placed in a chamber that contains a dark compartment; a strong incadescent light drives it to the dark compartment,where an electric shock is administered through metal plates on the floor. The animal is removed from the testing apparatus and tested again, 24 hours later, for the ability to remember the electric shock.
If scopolamine, an anticholinergic that is known to cause memory impairment, is administered before an animal's initial exposure to the test chamber, the animal re-enters the dark compartment shortly after being placed in the test chamber 24 hours later. This effect of scopolamine is blocked by an active test compound, resulting in a greater interval before re-entry into the dark compartment.
The results for an active compound are expressed as the percent of a group of animals in which the effect of scopolamine is blocked, as manifested by an increased interval between being placed in the test chamber and re-entering the dark compartment.

acetylcholinesterase, sequence (P22303 32-614): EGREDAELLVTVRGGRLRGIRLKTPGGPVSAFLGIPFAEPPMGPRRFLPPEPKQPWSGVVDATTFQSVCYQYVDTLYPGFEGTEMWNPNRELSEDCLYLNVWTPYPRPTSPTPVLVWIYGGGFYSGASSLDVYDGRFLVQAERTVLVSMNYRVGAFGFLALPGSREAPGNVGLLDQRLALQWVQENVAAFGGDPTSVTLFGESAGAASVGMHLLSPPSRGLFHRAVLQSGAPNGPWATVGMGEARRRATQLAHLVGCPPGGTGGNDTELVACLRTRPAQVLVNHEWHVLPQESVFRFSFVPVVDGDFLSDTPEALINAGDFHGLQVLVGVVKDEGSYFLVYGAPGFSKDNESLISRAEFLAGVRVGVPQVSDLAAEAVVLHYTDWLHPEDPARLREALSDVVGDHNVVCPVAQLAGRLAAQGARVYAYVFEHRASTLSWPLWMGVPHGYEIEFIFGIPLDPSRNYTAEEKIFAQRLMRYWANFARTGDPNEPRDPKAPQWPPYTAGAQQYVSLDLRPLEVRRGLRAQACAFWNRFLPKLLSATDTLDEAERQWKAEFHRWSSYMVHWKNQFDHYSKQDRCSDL

Row | SMILES | IC50 (acetylcholinesterase) | % of Animals with Scopolamine Induced Memory Deficit Reversal ([1]; 0.31 mg/kg of body weight) | % of Animals with Scopolamine Induced Memory Deficit Reversal ([1]; 5.0 mg/kg of body weight) | % of Animals with Scopolamine Induced Memory Deficit Reversal ([1]; 0.63 mg/kg of body weight)
1 | Oc1ccccc1C=Nc1c2c(nc3ccccc13)CCCC2 [9-Amino-N-[(2-hydroxyphenyl)methylene]-1,2,3,4-tetrahydroacridine, hemi-fumarate] | 5100 nM | – | – | –
2 | C(=Nc1c2c(nc3ccccc13)CCCC2)c1ccccc1 [N-Phenylmethylene-1,2,3,4-tetrahydro-9-acridinamine] | 230 nM | 27% | 60% | –
3 | Nc1c2c(nc3ccccc13)CCCC2 [Tacrine, 9-amino-1,2,3,4-tetrahydroacridine, reference compound] | – | – | – | 13%
4 | CC[C@@H]1C(=O)OC[C@@H]1Cc1cncn1C [Pilocarpine, reference compound] | – | – | 13% | –
